Reference: patent US9101630B2, “Use of PDGF-R inhibitors for the treatment of lymph node metastasis of gastric cancer” (priority 2010, dated 2015)
Structures can show the parent of a compound that is named as a salt.

Tested on: TMK-1 human gastric carcinoma cells implanted into the stomachs of nude mice
Test: Treatment of established human gastric cancer tumors growing in murine gastric walls; Lyve-1 immunohistochemical determination of the area of lymphatic vessels
Assay type: in vivo, athymic BALB/c nude mice
Settings: TMK-1 orthotopic gastric tumors in nude mice, imatinib mesylate 50 mg/kg daily oral gavage for 28 days, started 14 days after implantation, versus control (water), P<0.05
From the text: Animals and orthotopic implantation of tumor cells. Male athymic BALB/c nude mice (Charles River Japan, Tokyo) were maintained under specific pathogen-free conditions and used at 5 weeks of age. Subconfluent gastric cancer cells (TMK-1 or KKLS cells) to be used for implantation were harvested by brief treatment with 0.25% trypsin and 0.02% ethylenediamine tetraacetic acid, and then re-suspended to a final concentration of 2.0×10^7 cells/mL Hanks' solution. With the use of a 30-gauge needle attached to a 1-mL syringe, cells (1×10^6 cells in 50 μl) were implanted into the gastric walls in the nude mice under observation with a zoom stereomicroscope. […]
Treatment of established human gastric cancer tumors growing in murine gastric walls. Fourteen days after orthotopic implantation of TMK-1 cells, mice (n=10 each group) were randomly assigned to receive one of the following two treatments daily oral gavage of water (control group) or daily oral gavage of imatinib mesylate (50 mg/kg, optimal biological dose as determined previously (Hwang R F, et al. Clin Cancer Res 2003; 9: 6534-44) The treatments continued for 28 days. All therapy experiments were performed twice. The mice bearing orthotopic tumors were euthanised by methophane on day 29. For immunohistochemistry, the tumor tissues were fixed in formalin and embedded in paraffin. […]

Structure (SMILES): Cc1ccc(NC(=O)c2ccc(CN3CCN(C)CC3)cc2)cc1Nc1nccc(-c2cccnc2)n1 [imatinib mesylate]
- area of lymphatic vessels in tumors (Lyve-1 immunohistochemistry): reduced areas of lymphatic vessels
- area of lymphatic vessels in tumors (Lyve-1 immunohistochemistry) (listed as imatinib): significantly reduced the area of lymphatic vessels
